These results are taken from ChEMBL document CHEMBL4400575, “PROTAC Molecules for the Treatment of Autoimmune Disorders” (ACS Med Chem Lett, 2019).

Broadly, the Kd is the constant that tells how readily two partners part at equilibrium. A higher Kd goes with lower affinity.

For this assay, the target named is Protein cereblon (Homo sapiens, UniProt Q96SW2). Put plainly: Displacement of (-)-thalidomide-alexa fluor/pomalidomide-fluorescein conjugated probe from […] fused CRBN (unknown origin) measured after 60 mins by fluorescence polarization assay.
Protein cereblon, sequence (Q96SW2 whole entry, the tested form may be a part): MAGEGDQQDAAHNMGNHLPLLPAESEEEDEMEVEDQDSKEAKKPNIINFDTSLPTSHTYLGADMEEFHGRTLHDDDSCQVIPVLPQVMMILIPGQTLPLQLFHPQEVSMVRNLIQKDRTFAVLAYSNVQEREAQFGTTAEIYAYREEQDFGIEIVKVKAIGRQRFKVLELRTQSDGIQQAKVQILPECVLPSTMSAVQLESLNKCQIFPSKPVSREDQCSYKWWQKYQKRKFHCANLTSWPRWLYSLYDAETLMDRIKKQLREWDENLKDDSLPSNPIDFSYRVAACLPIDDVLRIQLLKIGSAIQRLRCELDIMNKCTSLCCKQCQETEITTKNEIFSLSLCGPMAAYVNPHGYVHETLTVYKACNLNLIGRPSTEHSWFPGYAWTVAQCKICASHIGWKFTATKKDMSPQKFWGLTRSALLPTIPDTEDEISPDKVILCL
For the molecule `COc1cccc(N(C)C2CCC(=O)NC2=O)c1` (stereo not drawn), the Kd is not above 10 µM.

Take `Cc1sc2c(c1C)C(c1ccc(Cl)cc1)=N[C@@H](CC(=O)NCCCCCCCCN1CCN(c3ccc(NC4CCC(=O)NC4=O)cc3)CC1)c1nnc(C)n1-2` (stereo partly drawn): the Kd was not above 10 µM. In the case of `N#Cc1ccc(-c2ccc(OC3CCC(=O)NC3=O)cc2)cc1` (stereo not drawn) it was not above 10 µM. In turn, `O=C1CCC(Nc2ccccc2N2CCOCC2)C(=O)N1` (stereo not drawn) returned a Kd of 10 to 50 µM. In the case of `Cc1nnc2n1-c1ccc(-c3cnn(CCCCCCN4CCN(c5ccc(NC6CCC(=O)NC6=O)cc5)CC4)c3)cc1C(c1ccc(Cl)cc1)=NC21CC1` (stereo not drawn) it was not above 10 µM.

`CC(=O)CCc1ccc(OC2CCC(=O)NC2=O)cc1` (stereo not drawn) gave a Kd not above 10 µM.

For the molecule `CC(C)(C)OC(=O)N1CCN(c2ccc(OC3CCC(=O)NC3=O)cc2)CC1` (stereo not drawn), the Kd was not above 10 µM. Molecule `CN1CCN(c2ccc(NC3CCC(=O)NC3=O)cc2)CC1` (stereo not drawn) returned a Kd not above 10 µM.
